From US9572786B2, “Use of capsiate or dihydrocapsidate” (Catholic University Industry Academy Cooperation Foundation, priority 2007, dated 2017)

How the values were obtained:
ERK = assay: MAPK signaling in mouse skin tissue, Western blotting: ERK; format: in vivo; details: hairless mouse; UV+CPT vs UV with acetone only
Procedure: In order to investigate the intracellular mechanism (signaling) related with the inhibition of COX-2 expression by capsiate, Western blotting was carried out for MAPK signaling-related proteins (ERK, p-ERK, p38, p-p38 and JNK, p-JNK) as in Example 2-2, using proteins isolated from the mouse skin tissue.

IL-6 = assay: UV-induced pro-inflammatory cytokine mRNA, RT-PCR: IL-6; format: cell-based, human; details: HaCaT cells; 10, 25, 50 μM; UV 100 J/m^2; 4 hours
Procedure: (§1) 1×10^6 HaCaT cells were placed on a 100 mm Petri dish and cultured for 24 hours in DMEM containing 10% FBS. Subsequently, the cells were cultured for 24 hours in DMEM containing 1% FBS until starvation. Then, after treating with capsiate at different concentrations (10 μM, 25 μM, 50 μM) for 30 minutes, followed by washing 3 times with PBS, UV was irradiated at an intensity of 100 J/m^2 to induce the production of cytokines. Immediately after the UV irradiation, the cells were washed again with PBS and further cultured for 4 hours in DMEM containing 1% FBS, which was treated with capsiate at the same concentration as in the pre-treatment.
Then, the degree of mRNA expression for IL-6, IL-8 and TNF-α induced mainly in the skin by the UV irradiation was evaluated by RT-PCR in order to measure the inhibition effect against the pro-inflammatory cytokines.
RNAs were extracted from the cells of each test group using Trizol (Invitrogen, USA) and used as template for PCR (PTC-225 Peltier thermal cycler, MJ Research, USA) to prepare cDNAs for each test group. Using the resultant cDNAs as template, the degree of mRNA expression for IL-6, IL-8 and TNF-α was measured by RT-PCR (Roter Gene 6000 series, Corbett Research, Australia) using commercial IL-6, IL-8 and TNF-α primers. […]

VEGF = assay: UV-induced VEGF expression, immunohistochemical staining; format: cell-based, human; details: HaCaT cells; 25 μM; UV 100 J/m^2; 24 hours
Procedure: First, the inhibition effect of capsiate on the expression of VEGF, the typical intracellular angiogenesis factor, was evaluated by immunohistochemical staining in order to investigate the inhibition effect of capsiate on angiogenesis.
HaCaT cells were placed on a 14 mm culture slide and cultured for 24 hours in DMEM containing 10% FBS. Subsequently, the cells were cultured for 24 hours in DMEM containing 1% FBS until starvation. Then, after treating with 25 μM capsiate for 30 minutes, followed by washing 3 times with PBS, UV was irradiated at an intensity of 100 J/m^2. Immediately after the UV irradiation, the cells were washed again with PBS and further cultured for 24 hours in DMEM containing 1% FBS, which was treated with capsiate at the same concentration as in the pre-treatment. The cells were fixed for 5 minutes using methanol and immunohistochemical staining was carried out in the same manner as in Example 2-3. For VEGF detection, rabbit anti-VEGF IgG antibody (Santa Cruz, USA) and Alexa 488-labeled anti-rabbit-IgG secondary antibody (Invitrogen, USA) were used.

MMP-9 = assay: Zymography of secreted MMP-9 after UV; format: cell-based, human; details: HaCaT culture medium; 10, 25, 50 μM; UV 100 J/m^2; 36 hours
Procedure: Zymography was carried out in order to investigate the decrease of expression and activity of MMP-2 and MMP-9 in protein level.
as §1, with “5×10^5 HaCaT” for “1×10^6 HaCaT”, “a 60” for “a 100”, “100 J/m^2.” for “100 J/m^2 to induce the production of cytokines.”, “for 36” for “for 4”, “pre-treatment. After collecting the culture medium, the activity of MMP-2 and MMP-9 proteins secreted from the cells into the medium was measured. To this end, the mediums obtained from the same number of cells were concentrated to the same volume, and the temperature was maintained at 4° C. in order to avoid the effect on the protein activity.” for “pre-treatment.”
Thus prepared sample was subjected to electrophoresis at 4° C. using 7.5% acrylamide gel containing gelatin but without sodium dodecyl sulfate (SDS). […]

Ki67 = Ki67 expression in mouse skin, immunohistochemical staining; format: in vivo; details: mouse skin tissue of Example 5
Procedure: In order to investigate the effect of capsiate on various intracellular angiogenesis-related expression factors, the inhibition effect of capsiate on angiogenesis factors induced by UV was evaluated using the mouse tissue of Example 5.
Mouse skin tissue obtained by skin biopsy was immersed in OCT compound (Sakura Finetechnical Co. Ltd, Japan) and slowly frozen in liquid nitrogen. Thus prepared tissue was sliced with a thickness of 7 μm and fixed on a slide using acetone. The tissue was washed with distilled water and PBS and, after blocking for 1 hour using 10% normal goat serum, incubated at 4° C. for at least 16 hours using ki67 antibody (1:100, Neomarker, USA). After washing 3 times with PBS, the tissue was treated with Alexa 488-conjugated secondary antibody (Invitrogen, USA) for 30 minutes and then washed 3 times. The tissue was mounted and observed under a fluorescence microscope (Carl Zeiss, USA).

For `COc1cc(COC(=O)CCCC/C=C/C(C)C)ccc1O` [capsiate], the “ERK phosphorylation in mouse skin tissue” value (ERK) was “suppressed phosphorylation”, the “expression of IL-6 (mRNA) increased by UV irradiation” value (IL-6) was “significantly decreases” and the “UV-induced VEGF expression in the cytoplasm” value (VEGF) was “decreased”. The “expression and activity of MMP-9 (zymography)” value (MMP-9) was “inhibited expression and activity” and the “expression of Ki67 increased by UV” value (Ki67) was “significantly inhibited”.
